For 10 compounds, inhibition and IC50 results are on record in ChEMBL document CHEMBL4831504, “Rearranged Diels-Alder Adducts and Prenylated Flavonoids as Potential PTP1B Inhibitors from Morus nigra” (J Nat Prod, 2021).

Molecules are shown by their SMILES. pIC50: −log10 of the molar value.

Assay [1] deals with T1, Tyrosine-protein phosphatase non-receptor type 1 (Homo sapiens) (UniProt P18031).
T1 sequence (whole entry): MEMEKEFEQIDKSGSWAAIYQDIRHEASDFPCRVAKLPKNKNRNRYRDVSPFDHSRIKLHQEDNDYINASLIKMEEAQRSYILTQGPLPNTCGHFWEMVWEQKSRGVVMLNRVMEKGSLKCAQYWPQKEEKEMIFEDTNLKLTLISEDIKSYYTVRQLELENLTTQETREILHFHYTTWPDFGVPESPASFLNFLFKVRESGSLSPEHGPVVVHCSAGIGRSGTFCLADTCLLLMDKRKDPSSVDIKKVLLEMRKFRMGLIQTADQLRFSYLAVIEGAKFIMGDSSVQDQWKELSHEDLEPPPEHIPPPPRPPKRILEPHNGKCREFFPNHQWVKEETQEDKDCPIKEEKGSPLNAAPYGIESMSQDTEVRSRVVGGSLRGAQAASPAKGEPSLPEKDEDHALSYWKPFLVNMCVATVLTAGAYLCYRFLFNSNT
In words: Inhibition of recombinant PTP1B catalytic domain (unknown origin) assessed as reduction in pNP formation using pNPP as substrate at 20 ug/ml by absorbance based analysis relative to control. The settings on record: dose 20.0 µg/ml.

Assay [2] deals with T2, Tyrosine-protein phosphatase non-receptor type 1 (Homo sapiens, UniProt P18031).
T2 sequence (P18031 whole entry): T1 sequence (whole entry)
In words: Inhibition of recombinant PTP1B catalytic domain (unknown origin) assessed as reduction in pNP formation using pNPP as substrate by absorbance based analysis.

On to `CC(C)=CCc1c(O)cc(-c2cc3ccc(O)cc3o2)cc1O` [MORACIN C], for which the inhibition in assay [1] came to 90.6%. Further, the negative-log IC50 (pIC50) in assay [2] is 4.99.

With `CC(C)=CCc1c(O)ccc(C(=O)Oc2cc(/C=C/c3ccc(O)cc3O)cc(O)c2-c2cc(C)cc(-c3ccc(O)cc3O)c2)c1O`, the inhibition in assay [1] is 97%. In assay [2], the negative logarithm of the IC50 (pIC50) was 5.74.

Regarding `CC1(C)Oc2cc3oc(-c4cc(O)cc(O)c4)cc3cc2CC1O` (stereo not drawn) [(+/-)-MORACIN P], the inhibition in assay [1] was found to be 39.1%. For the same compound, the negative-log IC50 (pIC50) in assay [2] was not above 4.30.

With `CC(C)=CCC/C(C)=C/Cc1c(O)cc(O)c2c(=O)c(CC=C(C)C)c(-c3ccc(O)cc3O)oc12`, the inhibition in assay [1] was found to be 95.8%. In assay [2], the pIC50 is 5.28.

With `CC(C)=CCc1c(-c2ccc(O)cc2O)oc2c3c(cc(O)c2c1=O)OC(C)(C)C=C3` [MORUSIN], in assay [1], the inhibition came out at 71.5%. Besides, the pIC50 in assay [2] is 4.66.

On to `CC(C)=CCc1cc(-c2oc3cc(O)cc(O)c3c(=O)c2CC=C(C)C)c(O)cc1O`, for which the inhibition in assay [1] is 77.6%. Further, the pIC50 in assay [2] is 4.90.

As to `CC(C)=CCc1cc(-c2oc3c(CC=C(C)C)c(O)cc(O)c3c(=O)c2CC=C(C)C)c(O)cc1O`, the inhibition in assay [1] was found to be 93.3%. The pIC50 in assay [2] was 5.11.

As for `CC(C)=CCc1c(O)ccc(C(=O)Oc2cc(-c3cc4ccc(O)cc4o3)cc(O)c2-c2cc(C)cc(-c3ccc(O)cc3O)c2)c1O`, the inhibition in assay [1] was 99.2%. In assay [2], the negative logarithm of the IC50 (pIC50) is 5.89.

For `CC(C)=CCc1c(-c2ccc(O)cc2O)oc2cc3c(c(O)c2c1=O)C=CC(C)(C)O3` [CUDRAFLAVONE B], the inhibition in assay [1] was found to be 70.9%. The negative logarithm of the IC50 (pIC50) in assay [2] was 4.70.

For `CC(C)=C[C@H]1Oc2cc(O)ccc2-c2oc3cc(O)ccc3c(=O)c21`, in assay [1], the inhibition was 45.4%. Also, the negative-log IC50 (pIC50) in assay [2] was not above 4.30.

For orientation: inhibition means the share of the control response that was lost under treatment. The term pIC50 denotes the negative decadic logarithm of the IC50, by convention in mol/L.
